test: in vitro; conditions: human, hela cells, % viability

Row | SMILES | viability at 28.5 h, 10 µM [%]
1 | Cc1ccc(C(=O)c2cccc(N3C(=O)c4ccc(C(=O)O)cc4C3=O)c2)cc1C [CBK286994] | 110
2 | COc1c(C)cc(Br)cc1C(=O)NC(=S)Nc1ccccc1N1CCN(C)CC1 [CBK267855C] | 97.1
3 | Cc1[nH]nc(-c2ccc(OCc3cnn(-c4ccccc4)c3)cc2O)c1Oc1ccc(Cl)cc1 [CBK264939] | 86.8
4 | CC(=O)Nc1ccc(Nc2ncnc3c2cnn3-c2ccc(C)cc2C)cc1 [CBK265803] | 116
5 | Fc1ccc(-c2nccnc2NCc2ccncc2)cc1 [CBK088964] | 98.8
6 | CC(c1nc2ccccc2[nH]1)N1CCC2(CC1)NCCc1c2[nH]c2ccccc12 (stereo not shown) [CBK040061] | 90.3
7 | O=C(NCCc1cccs1)Nc1ccccc1OC(F)(F)F [CBK044873] | 98
8 | O=C1NCC2(CCN(C(=O)c3ccco3)CC2)Oc2ccccc21 [CBK282919] | 103
9 | OCCNCCNCc1ccc(-c2ccccc2)cc1 [CBK278269C] | 115
10 | Cc1cc(C)c(C)c(S(=O)(=O)NCCN2CCCCC2CO)c1C (stereo not shown) [CBK307333] | 90.4
11 | CCCc1oc(C(=O)O)cc1CN1CCOCC1 [CBK267984C] | 106
12 | Cc1ccc(OCc2ccc(Cl)nc2)c(Br)c1 [CBK002842] | 75.8
13 | COc1cccc(/C=C\c2[nH]c(=O)[nH]c(=O)c2[N+](=O)[O-])c1OCC(=O)O [CBK266822] | 104
14 | Cc1cc(OC(C)C(=O)NCc2ccccn2)ccc1Cl (stereo not shown) [CBK269617] | 110
15 | Nc1ncc(-c2ccc(C(=O)N3CCOCC3)cc2)nc1C(=O)NCc1ccc(O)cc1 [CBK149161] | 109
16 | O=C(O)CSc1ccc(Br)c2cccc(C(=O)O)c12 [CBK126919] | 99.2
17 | COc1ccc([C@@]23CC/C(=N/NS(=O)(=O)c4ccc(C)cc4)C[C@@H]2N(Cc2ccccc2)CC3)cc1OC [CBK002717] | 95.5
18 | COc1ccccc1NC(=O)CCn1c(C(F)F)cc2cccnc21 [CBK285065] | 99.2
19 | CN(C)S(=O)(=O)N1CCC(Cc2ccccc2)CC1 [CBK263768] | 98.2
20 | O=C(COc1ccc(F)cc1)N1CCCC1c1cccc(Cc2ccc(F)cc2)n1 (stereo not shown) [CBK286235] | 99.3
21 | COC(=O)CCc1ccc(S(=O)(=O)N2CCCN(Cc3c(-c4ccccc4)noc3C)CC2)cc1 [CBK063011] | 97.3
22 | O=C(CSc1nc(-c2ccc(F)cc2)cc(C(F)(F)F)n1)NCCN1CCOCC1 [CBK266121] | 99.6

Row | SMILES | viability at 28.5 h, 10 µM [%]
23 | CC(O)CNCCNc1c(Cl)cccc1[N+](=O)[O-] (stereo not shown) [CBK262802C] | 98.8
24 | CCC(C)(C)c1nnc(NC(=O)COc2ccc(Cl)cc2Cl)s1 [CBK058435] | 103
25 | COC(=O)c1c(NC(=O)CSc2nnc3ccccn23)sc(C)c1C [CBK265943] | 95.7
26 | Cc1ccccc1NC(=O)CC(C(=O)O)N(C)C (stereo not shown) [CBK266924] | 103
27 | Cc1c(C(=O)O)sc2nc3c(Cl)cc(C(=O)c4ccccc4O)cn3c(=O)c12 [CBK295619] | 98.5
28 | CC(=O)NC[C@H]1C[C@@H]2CCN1C[C@@H]2c1cc(-c2ccco2)nc(C)n1 [CBK289128] | 102
29 | O=C(Nc1ccc(C(=O)N2CCOCC2)cc1)c1cc(-c2cccnc2)nc2ccc(Cl)cc12 [CBK267725] | 93
30 | CC(=O)c1ccc(-c2nc(NC(=O)c3ccccn3)cnc2-c2cccc(OC(F)(F)F)c2)s1 [CBK036929] | 107
31 | COc1ccc(NC(=O)CSc2nc(O)cc(=O)[nH]2)cc1 [CBK261747] | 88.8
32 | CCc1nn(CCN2CCCC2)c(=O)c2cc3sccc3n12 [CBK284075] | 83.5
33 | CCNC(=O)NC[C@H]1C[C@@H]2CCN1C[C@@H]2c1cc(C2CCCC2)nn1C [CBK288743] | 93.6
34 | Clc1ccc(Nc2nc(-c3ccoc3)cn3ccnc23)cc1 [CBK066497] | 102
35 | CCC(CO)Nc1nccnc1-c1ccsc1 (stereo not shown) [CBK036606] | 107
36 | CCC(NC1CCc2nc(COC)nn2C1)C1CCC1 (stereo not shown) [CBK304739] | 87.8
37 | CC(=O)N[C@H](C(=O)N1CC[C@H]2NC(=O)[C@@H](Cc3ccccc3)NC(=O)C3(C/C=C/C[C@H]2C1)CCOCC3)[C@@H](C)OC(C)(C)C [CBK292203] | 103
38 | COCCn1c(SC(C)C(=O)OC)nc2ccc(Br)cc2c1=O (stereo not shown) [CBK306479] | 88.5
39 | C[C@H]1[C@@H]2[C@@H](O)C([C@H](C)C(=O)NC3CC3)CC[C@@]2(C)CC[C@@H]1NC(=O)C1CC1 (stereo partly shown) [CBK289442] | 87.1
40 | Cn1cc(C2CNCCN2C(=O)c2coc3ccccc23)cn1 (stereo not shown) [CBK304270C] | 87
41 | Cc1noc(C(C)C)c1C(=O)NC1CCCN(c2ccn(C)n2)C1=O (stereo not shown) [CBK306356] | 75.8
42 | CN1CCN(c2ccnc3cc(Cl)ccc23)CC1 [CBK066867C] | 86
43 | Nc1nc(-n2cnnc2)nn1-c1ccccc1 [CBK265015] | 97.2
44 | COc1nccnc1-c1cc2ccccc2s1 [CBK106781] | 87.7

Row | SMILES | viability at 28.5 h, 10 µM [%]
45 | CS(=O)(=O)Nc1ccc(-c2cc(F)cc(F)c2)c2ccccc12 [CBK083743] | 89.8
46 | CNCS(=O)(=O)C(F)(F)S(=O)(=O)N(C)C [CBK018820] | 89.7
47 | COc1ccccc1OCC(=O)N1CCN(C(=O)c2ccco2)CC1 [CBK144466] | 86.8
48 | c1nc(Nc2ccc3[nH]ccc3c2)cc(-c2ccc(N3CCOCC3)cc2)n1 [CBK090851] | 91.1
49 | Cc1nn(C)cc1CN(C)CC(=O)Nc1nc2c(s1)CC(C)CC2 (stereo not shown) [CBK306669] | 90.6
50 | NC(=O)c1ccc(NC(=O)N2CCN(CCN3CCOCC3)CC2)cc1 [CBK155831] | 81.6
51 | O=c1c(N2CCNCC2)nccn1CC1COc2ccccc2O1 (stereo not shown) [CBK024845T] | 87
52 | CCOCCn1nc(C)cc1C(=O)NC(CC)c1cn2cccnc2n1 (stereo not shown) [CBK307377] | 79
53 | Cc1c(Cl)cccc1S(=O)(=O)Nc1nccnc1C(=O)O [CBK024795] | 90.9
54 | COC(=O)c1ccc(NC(=O)N2CCCCC2CCn2ccnc2)cc1 (stereo not shown) [CBK307195] | 86.8
55 | O=[N+]([O-])c1ccc(CN2CCC(Oc3cncc(OCc4cccnc4)n3)C2)cc1 (stereo not shown) [CBK084456] | 91.6
56 | OC1CCC(Nc2nc(-c3ccccc3)cn3ccnc23)CC1 (stereo not shown) [CBK037329] | 98.5
57 | O=C(N[C@H]1CCN2C(=O)c3ccccc3NC(=O)[C@H]12)c1cccc(F)c1 [CBK289332] | 89.3
58 | CC(CNC(=O)Cn1nc(C(F)(F)F)c2c1CCC2)N1CCCC1 (stereo not shown) [CBK282212] | 89.9
59 | CC(=O)NCC1CC(c2ccc(OC(C)=O)c(Cl)n2)=NO1 (stereo not shown) [CBK010396] | 88.8
60 | COC(=O)COc1nccnc1-c1ccc(SC)cc1 [CBK106806] | 107
61 | CC1(C)Cc2nc(N3CCOCC3)ncc2C(NC(=O)c2cccs2)C1 (stereo not shown) [CBK307369] | 92.7
62 | CCCc1nc2oc3c(-c4ccccc4)c(C(=O)O)c(C)nc3c2c2c1COC(C)(C)C2 [CBK264044] | 89.2
63 | COC(=O)CN1N=C(C(C)(C)C)Cn2c(cc3sccc32)C1=O [CBK284177] | 83.3
64 | CCC1CCCCN1C(=O)c1cc(C)oc1C (stereo not shown) [CBK089358] | 105
65 | CCOC(=O)C1CCN(CCC(=O)Nc2ccc(F)c(F)c2)CC1 [CBK264252] | 112
66 | O=C(NC(c1ccc(-c2ccccc2)cc1)c1cnccn1)C1CCN(CCCN2C(=O)C3CCCCC3C2=O)CC1 (stereo not shown) [CBK147856] | 97.3

Row | SMILES | viability at 28.5 h, 10 µM [%]
67 | O=C(/C=C/c1ccccc1)Oc1cccc(NC(=O)C2CC(=O)N(c3ccccc3)C2)c1 (stereo not shown) [CBK264330] | 109
68 | CC1CCN(C(=S)NC2CC3CCC2C3)CC1 (stereo not shown) [CBK085998] | 91.3
69 | O=C(NC(c1ccccc1)c1cccnc1)C1CCN(C(=O)NCCc2cccs2)CC1 (stereo not shown) [CBK060313] | 78.3
70 | CC(C)Nc1nccnc1SCCN(C)C [CBK105290] | 92.1
71 | COc1ccc(-c2csc(CCNC(=O)Cc3c[nH]c(=O)[nH]c3=O)n2)cc1 [CBK285670] | 92.4
72 | Brc1cccc(/C=N/c2ccc3nc(-c4ccccc4)[nH]c3c2)c1 [CBK261143] | 109
73 | O=C(Cn1c(=O)cc(O)c2ccccc21)N1CCN(c2ccccn2)CC1 [CBK291117] | 94.4
74 | N=c1n(CCN2CCCCC2)c2ccccc2n1CC(=O)c1cccs1 [CBK278244B] | 85
75 | CSc1ccccc1CNC(=O)c1ccc(C)nc1N1CCOCC1 [CBK106224] | 91.9
76 | CC1(C)CC(=O)Nc2ccccc2S1 [CBK025483] | 98.2
77 | Cc1cccnc1C(c1ccc(F)cc1)N(C)C(=O)C1CCN(CCc2ccc(Br)cc2)CC1 (stereo not shown) [CBK148397] | 90.5
78 | CS(=O)(=O)c1ccc2nc(NC(=O)c3cccs3)sc2c1 [CBK287340] | 92.6
79 | O=C(Cc1c[nH]c2ccccc12)N1CCC2(CCN(C(=O)c3cccnc3)C2)C1 (stereo not shown) [CBK131453] | 80.6
80 | Cc1nc(-c2ccc(NC(=O)Cc3sc(C)nc3C)cc2)cs1 [CBK281404] | 96
81 | COc1ccc(Cc2nnc(Nc3ccc(OC)cc3)[nH]c2=O)cc1 [CBK287385] | 92.9
82 | CC(C)CNc1nc(-c2cccc(N(C)C)c2)cnc1N [CBK063870] | 97
83 | NC(=O)c1cccc(CNC2CCCN(c3cccnn3)C2)c1 (stereo not shown) [CBK305115] | 103
84 | COc1ccccc1NS(=O)(=O)c1ccc(C)c(C(=O)NCC(c2ccco2)N2CCCCC2)c1 (stereo not shown) [CBK296669] | 81.3
85 | COc1ccc(C(=O)NC(Nc2ccccc2)C(Cl)(Cl)Cl)cc1OC (stereo not shown) [CBK263680] | 106
86 | NS(=O)(=O)c1ccc(NC(=O)c2cccnc2)cc1 [CBK264488] | 106
87 | CCN1C(=O)CC(N2CCN(c3cc(-c4ccc(OC)cc4)nc(C)n3)CC2)C1=O (stereo not shown) [CBK269744] | 106

same assay, conditions: human, hela cells, % viability, bulk resorufin, single well

Row | SMILES | viability at 28.5 h, 10 µM [%]
88 | O=C1NC(=O)C(CCc2ccncc2)(c2ccccc2)C(=O)N1 [CBK288431] | 96.9

From publication PMC12040169 (PLOS Biology, 2025)
